The text below walks through data of PMC3720542, “Population pharmacokinetics of mefloquine, piperaquine and artemether-lumefantrine in Cambodian and Tanzanian malaria patients” (Malaria Journal, 2013).

For series [1] the following is noted: cited from earlier work.
A short description of series [2]: Population pharmacokinetic analysis (NONMEM) of artemether-lumefantrine and metabolites in Tanzanian malaria patients (Kibaoni). The format is in vivo, human. The following applies: for clearance / Vd: human, plasma, oral; for Vd: read-out: VSS (steady-state volume of distribution), population estimate for a person of 70 kg. As for the experimental part: Three studies have been conducted, one in Tanzania and two in Cambodia. The study profiles are described in Figure 1. The first study was performed during March to May 2008 at the Kibaoni Health Centre, Kilombero district, Morogoro region, Tanzania. […] Six AM-LF (Coartem®, Novartis Pharma, Switzerland) doses were administered at time 0, 8, […] according to body weight (see Table 1); patients were either admitted for three days or asked to come back to the health facility for each drug administration. Mothers of breastfed patients were encouraged to feed their children and patients admitted were provided with food. Patients who reported that they have not eaten within two hours to prior dose intake were instructed to eat as soon as possible. Patients were seen by the clinical officer on days 0, 1, 2, 3, 7, 14, 28, and 42. A blood sample for pharmacokinetic measurement was taken at baseline (pre-dose on day 0) and on days 1, 2, and 7 at pre-defined random times after the last dosing. At each visit, a filter paper sample and a thin and thick smear were taken, in addition to axillary temperature, respiratory rate and haemoglobin measurements (only on days 0, 28 and 42) as well as evaluation of symptoms (e.g. headache, vomiting, and diarrhea). The exact dose and time of last drug intake, body weight, height, age, sex, food intake and concomitant medications were carefully recorded. If patients suffered from concomitant illnesses they were provided with additional treatment (paracetamol, mebendazole, metronidazole, cloxacillin, amoxicillin). Samples of 2 ml of venous blood were collected on an EDTA Vacutainer and kept on ice for no longer than 6 h after withdrawal and then aliquoted into whole blood, plasma and pellet and immediately stored in liquid nitrogen or a -80°C freezer. […] The laboratory is part of the quality control system of the World-Wide Antimalarial Resistance Network (WWARN). The pharmacokinetic analysis for each drug taken separately was performed using the NONMEM computer program Version 6 (NM-TRAN version II). It uses mixed (fixed and random) effects regression to estimate population means and variances of the pharmacokinetic parameters and to identify factors that influence them. One-, two- and three-compartment pharmacokinetic models with first-order absorption, with and without absorption lag times, were compared. Additional one or two-compartments were used for anti-malarials presenting metabolite concentrations (AM and LF). The final parameters estimated were systemic clearance (CL/F), inter-compartmental clearance (Q/F), central volume of distribution (VC/F), peripheral volume of distribution (VP/F) and absorption rate constant (ka). Since no intravenous drug concentration data were available, these parameters represent apparent values. Where available, metabolite data were included into the model and metabolism rate constant from drug compartment to metabolite compartment (k23) and metabolite clearance (CLmet) were also estimated. Owing to identifiability problems, the volume of distribution of the metabolites (VM) DLF and DHA were assumed to equal LF and AM VC, respectively. […] The observed baseline residual plasma concentrations were fitted by estimating a factor (F0) that provided an estimation of the residual doses from previous treatment. […] Proportional and combined proportional-and-additive error models were compared to describe intra-patient (residual) variability for the mother compound, and if available for its metabolite using Cpij(1 + ε1ij) + ε2ij or Cmij(1 + ε3ij) + ε4ij, where Cpij are the corresponding predicted i^th drug plasma concentration and Cmij are the predicted metabolite concentration for the j^th individual, and ε1ij, ε2ij, ε3ij, ε4ij, are independent normally distributed residual error terms with a mean of zero and a variance of σ^2_1, σ^2_2, σ^2_3, σ^2_4. The covariate analysis was performed using a stepwise insertion/deletion approach. […]

The nature of series [3]: Population pharmacokinetic analysis (NONMEM) of piperaquine in Cambodian malaria patients (Pramoy, DHA-PPQ). The format is in vivo, human. As for the experimental part: The third study was performed during July to October 2008 at Pramoy Health Centre, Veal Veng district, Pursat province, Cambodia. A total of 287 suspected malaria cases were screened by microscopy, of whom 82 (29%) were infected with P. falciparum and 50 (17%) with P. vivax (no mixed infections). Children younger than six years of age and pregnant or lactating women were excluded. Three doses of DHA-PPQ (Duo-Cotecxin®, Zhejiang Holley Nanhu Pharmaceutical Co., Ltd, China) were given according to age (as per national guidelines) on three consecutive days (see Table 1). Same follow-up and blood sampling as at Phnom Dék were performed.
Samples of 2 ml of venous blood were collected on an EDTA Vacutainer and kept on ice for no longer than 6 h after withdrawal and then aliquoted into whole blood, plasma and pellet and immediately stored in liquid nitrogen or a –80°C freezer. […] The method was validated according to FDA recommendations, including assessment of extraction yield, matrix effect variability, overall process efficiency, standard addition experiments as well as anti-malarials short- and long-term stability in plasma. […] The laboratory is part of the quality control system of the World-Wide Antimalarial Resistance Network (WWARN).
The pharmacokinetic analysis for each drug taken separately was performed using the NONMEM computer program Version 6 (NM-TRAN version II). It uses mixed (fixed and random) effects regression to estimate population means and variances of the pharmacokinetic parameters and to identify factors that influence them.
One-, two- and three-compartment pharmacokinetic models with first-order absorption, with and without absorption lag times, were compared. Additional one or two-compartments were used for anti-malarials presenting metabolite concentrations (AM and LF). The final parameters estimated were systemic clearance (CL/F), inter-compartmental clearance (Q/F), central volume of distribution (VC/F), peripheral volume of distribution (VP/F) and absorption rate constant (ka). Since no intravenous drug concentration data were available, these parameters represent apparent values. Where available, metabolite data were included into the model and metabolism rate constant from drug compartment to metabolite compartment (k23) and metabolite clearance (CLmet) were also estimated. Owing to identifiability problems, the volume of distribution of the metabolites (VM) DLF and DHA were assumed to equal LF and AM VC, respectively. […] The observed baseline residual plasma concentrations were fitted by estimating a factor (F0) that provided an estimation of the residual doses from previous treatment.
Exponential errors following a log-normal distribution were assumed for the description of inter-patient variability of the pharmacokinetic parameters and were of the form: θi=θ×e^ηj where θi is the individual pharmacokinetic parameter value in the j^th individual, θ is the population parameter estimate, and ηj is the random effect value, which is independently and normally distributed with a mean of 0 and variance ω^2. Proportional and combined proportional-and-additive error models were compared to describe intra-patient (residual) variability for the mother compound, and if available for its metabolite using Cpij(1 + ϵ1ij) + ϵ2ij or Cmij(1 + ϵ3ij) + ϵ4ij, where Cpij are the corresponding predicted i^th drug plasma concentration and Cmij are the predicted metabolite concentration for the j^th individual, and ϵ1ij, ϵ2ij, ϵ3ij, ϵ4ij, are independent normally distributed residual error terms with a mean of zero and a variance of σ^2_1, σ^2_2, σ^2_3, σ^2_4.
The covariate analysis was performed using a stepwise insertion/deletion approach. Visual inspection of the correlation between post hoc individual estimates of the pharmacokinetic parameters and the available covariates was first conducted by graphical exploration. […]

[4] abbreviates: patients, age 7.7 ± 1.4 years, n 13, sampling 28 days.
The mark [5] stands for this setting: patients, median age 4.0 (1–10) years, n 50, sampling 72 h.
[6] abbreviates: patients, median age 22 (14–60) years, n 217.
Where [7] appears, read: pregnant women, median age 21 (16–35) years, n 21, sampling 10 h.
The mark [8] stands for this setting: bootstrap evaluation, 200 replicates.
Setting [9] is: present study, Tanzanian patients, sampling 7 days.
[10] abbreviates: non-pregnant women, median age 27.5 (18–45) years, n 24, sampling 84 days.
The mark [11] stands for this setting: patients, median age 6 (2–10) years, n 236, sampling 42 days.
The mark [12] stands for this setting: pregnant women, median age 25 (18–43) years, n 24, sampling 84 days.

Where two headings read alike, the source gives them in different places. Marks after values point to notes of the source that are not given here.

With `CO[C@H]1O[C@@H]2O[C@@]3(C)CC[C@H]4[C@H](C)CC[C@@H]([C@H]1C)[C@@]24OO3` [Artemether, artemether], in series [1] (setting [4]), the “CL, population estimate for a person of 70 kg” value (“CL … of 70 kg” for short) is on record as 102 L/h and the “VSS, population estimate for a person of 70 kg” value is on record as 1263 L. Besides, in series [1] (setting [5]), the “CL … of 70 kg” value was 182–700^b L/h and the “VSS, population estimate for a person of 70 kg” value is given as 364 L. In series [1] (setting [6]), the “CL … of 70 kg” value is recorded as 252^a L/h and the “VSS, population estimate for a person of 70 kg” value is 304^a L. Moreover, in series [1] (setting [7]), the “CL … of 70 kg” value was 1054^d L/h and the “VSS, population estimate for a person of 70 kg” value is 2602^d L. In series [2] (setting [8]), the “VC, bootstrap mean of 200” value came to 133 L/kg; the “k23, bootstrap mean of 200” value came out at 5.83 h⁻¹; the “ka, bootstrap mean of 200” value is 0.27 h⁻¹; the “θINH, bootstrap mean of 200” value is listed as −0.27. The “σC (CV%), bootstrap mean of 200” value in series [2] (setting [8]) was 73%. In addition, the “decrease in CL in patients exposed to a CYP2C9 or CYP3A4 inhibitor” value in series [2] (concomitant treatment) is reported as 70%. Further, in series [2] (final model), the “IIV (inter-individual variability) of CL” value came to 44%; the “IIV (inter-individual variability) of k23” value is given as 68%; the “IIV (inter-individual variability) of ka” value came out at 119%; the “ka (first-order absorption rate constant), population estimate” value is 0.27 h⁻¹. Also, in series [2] (final model, intra-patient variability), the “σC (CV%), residual error for the central compartment, population estimate” value is on record as 74%. Also, the “k23 (metabolism rate constant), population estimate” value in series [2] (final model, parent to metabolite (AM to DHA, LF to DLF)) was 5.86 h⁻¹. Besides, in series [2] (setting [9]), the clearance is 9970 mL/min and the Vd was 129 L.
Consider `CCCCNCC(O)c1cc(Cl)cc2c1-c1ccc(Cl)cc1/C2=C/c1ccc(Cl)cc1` (centres unmarked) [DLF, desbutyl-lumefantrine], for which the “CL … of 70 kg” value in series [1] (setting [4]) is recorded as 701 L/h; in series [2] (setting [9]), 336 L/h. Moreover, in series [2] (setting [9]), the “VSS (steady-state volume of distribution), population estimate for a person of 70 kg” value was 265^f L.
`Clc1ccc2c(N3CCN(CCCN4CCN(c5ccnc6cc(Cl)ccc56)CC4)CC3)ccnc2c1` [Piperaquine, piperaquine]: in series [1] (setting [10]), the “CL … of 70 kg” value was 92 L/h and the “VSS, population estimate for a person of 70 kg” value is on record as 58,030 L. In addition, the “CL, population estimate” value in series [1] (patients, age 3–55 years, n 98, sampling 63 days) is on record as 98^h L/h. Besides, in series [1] (patients, age 3–55 years, n 98, sampling 63 days, for a patient with a median body weight of 48 kg), the “VSS, population estimate” value is recorded as 61,180^i L. Further, in series [1] (setting [11]), the “CL … of 70 kg” value is 29 L/h and the “VSS, population estimate for a person of 70 kg” value was 14,972 L. In series [1] (setting [12]), the “CL … of 70 kg” value is 90 L/h and the “VSS, population estimate for a person of 70 kg” value is 37,030 L. Besides, in series [3] (setting [8]), the “F0, bootstrap mean of 200” value came to 125 mg; the “Q, bootstrap mean of 200” value was found to be 126 L/h; the “VP, bootstrap mean of 200” value is reported as 20,053 L; the “ka, bootstrap mean of 200” value came out at 1.00 h⁻¹. Besides, the “σC, bootstrap mean of 200” value in series [3] (bootstrap evaluation, 200 replicates, listed as head prints [μmolL^-1]) was 41%. For the same compound, in series [3] (final model), the “IIV (inter-individual variability) of CL” value is 45%; the “IIV (inter-individual variability) of VC” value came out at 65%; the “IIV (inter-individual variability) of VP” value amounted to 50%; the “ka (first-order absorption rate constant), population estimate” value was 0.93 h⁻¹. Further, the “F0 (residual amount from the previous treatment), population estimate” value in series [3] (final model, baseline) is 123 mg. In series [3] (human, plasma, oral, present study, 60 patients, sampling 14 days), this compound had a clearance of 1820 mL/min. The Vd in series [3] (human, plasma, oral, present study, 60 patients, sampling 14 days, read-out: VSS, population estimate for a person of 70 kg) is 42800 L. The “residual dose (F0) as percentage of an initial dose” value in series [3] (initial dose 480–960 mg) is given as 12.8–25.6%.
In the case of `C[C@H]1[C@@H](O)O[C@@H]2O[C@@]3(C)CC[C@H]4[C@H](C)CC[C@@H]1[C@@]24OO3` [DHA, dihydroartemisinin], in series [1] (setting [6]), the “CL … of 70 kg” value is listed as 237^a L/h. Also, the “CL … of 70 kg” value in series [1] (setting [7]) is 564 L/h. Also, in series [2] (setting [9]), the clearance is 6980 mL/min and the Vd is 129 L.
